Results: patent US10107798B2, “Methods of chemotype evolution” (SUNESIS PHARMACEUTICALS, INC., priority 2008, dated 2018)
Values joined by “and” are separate entries in the source; they are usually repeats but may differ in a detail not shown here. Equal values may be shown once.

biological target: T1, ALK (Invitrogen PV3867) (Homo sapiens, UniProt Q9UM73); assay: ALK kinase assay (LanthaScreen time-resolved FRET, 10 μM ATP); format: biochemical; conditions: Table 7; hit fragment alone, no bait; read-out: Fragment IC50
T1 construct: purchased Invitrogen PV3867
Protocol: ALK kinase assays were conducted using the LanthaScreen® time-resolved FRET assay format (Invitrogen, Carlsbad Calif.). Assay conditions consisted of 15 pM (picomolar) ALK (Invitrogen PV3867), 10 μM ATP, and 100 nM substrate peptide FL-polyGT (Invitrogen PV3610) diluted in assay buffer (10 mM Tris pH 7.2, 10 mM MgCl, 1 mM DTT, 100 μM Na2OVO4. 0.01% Triton® X-100, 0.05% Casein). Control compounds and fragment-assembly reaction mixtures were diluted in DMSO to generate stock compounds at 20-fold final concentration. For IC50 assays, fragment-assembly reaction mixtures were titrated three-fold in DMSO and diluted 20-fold into the assay mixture. As a positive control for enzyme activity, the reaction mixture was added to DMSO, and, as a negative control for enzyme activity, the reaction mixture was added to staurosporine (Sigma) at a final concentration of 20 μM.
Fragment Library Pilot Screen. Fragment-assembly reaction mixtures were screened in 384-well plates at a concentration approximating 5-fold lower than that of the purine-mimetic bait fragment IC50 value, in single-point format in the ALK assay as described above. Reaction mixtures resulting in greater than or equal to 50% inhibition of enzymatic activity were then confirmed in single-point format, or tested in an IC50 assay. LC/MS analysis was conducted on fragment assembly screening plates to confirm the presence of desired test ligand in the reaction mixture.

T1 sequence (Q9UM73 1058-1620 limits assumed): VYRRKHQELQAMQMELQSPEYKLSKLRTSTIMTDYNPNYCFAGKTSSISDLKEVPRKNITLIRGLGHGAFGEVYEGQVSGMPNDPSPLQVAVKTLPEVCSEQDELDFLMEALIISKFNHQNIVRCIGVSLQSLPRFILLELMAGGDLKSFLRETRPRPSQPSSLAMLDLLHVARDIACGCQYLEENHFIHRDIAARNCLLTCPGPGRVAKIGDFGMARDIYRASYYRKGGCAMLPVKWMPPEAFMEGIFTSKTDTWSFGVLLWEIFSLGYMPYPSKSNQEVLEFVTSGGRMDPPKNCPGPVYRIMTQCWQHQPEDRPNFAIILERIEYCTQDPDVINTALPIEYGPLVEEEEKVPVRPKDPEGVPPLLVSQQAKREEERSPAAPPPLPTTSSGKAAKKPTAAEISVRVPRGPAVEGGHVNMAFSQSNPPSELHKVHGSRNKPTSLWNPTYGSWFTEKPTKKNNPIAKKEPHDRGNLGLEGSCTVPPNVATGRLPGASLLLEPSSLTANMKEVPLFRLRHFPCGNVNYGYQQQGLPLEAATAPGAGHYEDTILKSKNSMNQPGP

Row | Compound | IC50 [µM]
1 | COc1cccc(C)c1NC(=O)NCCS | 6.64
2 | O=C(CS)Nc1ccc(Cl)cc1C(F)(F)F | 1.62
3 | O=C(CS)N1CCCN(c2nc3ccc(Cl)cc3s2)CC1 [Compound 32] | 2

same assay, conditions: read-out: IC50

Row | Compound | IC50 [µM]
4 | COc1ccccc1Nc1ncc(Cl)c(NCCS)n1 [Compound 26] | 0.5
5 | CNc1ncc(Cl)c(CCl)n1 [Compound 29] | 7.8
6 | CC(C)S(=O)(=O)c1ccccc1Nc1nc(NCCS)ncc1Cl [Compound 27] | 0.25
7 | CNc1ncc(Cl)c(Nc2cccc(CCl)c2)n1 [Compound 28] | 3.75

biological target: T2, Aurora A (Homo sapiens, UniProt O14965); assay: Aurora A activity in cell based assays; conditions: inhibition of Aurora A activity in cell based assays
T2 sequence (O14965 1-403): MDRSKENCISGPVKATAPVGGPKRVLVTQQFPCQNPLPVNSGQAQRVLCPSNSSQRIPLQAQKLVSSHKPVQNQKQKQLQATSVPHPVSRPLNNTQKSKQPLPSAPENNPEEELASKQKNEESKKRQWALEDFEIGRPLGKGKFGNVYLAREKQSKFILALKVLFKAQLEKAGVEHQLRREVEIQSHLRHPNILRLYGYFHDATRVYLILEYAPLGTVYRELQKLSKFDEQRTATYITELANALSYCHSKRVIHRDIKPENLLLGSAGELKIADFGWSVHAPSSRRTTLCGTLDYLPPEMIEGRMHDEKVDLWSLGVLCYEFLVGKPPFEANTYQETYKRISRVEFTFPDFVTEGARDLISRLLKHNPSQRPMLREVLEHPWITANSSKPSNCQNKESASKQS

Row | Compound | EC50 [µM]
8 | COc1ccc(C(=O)Nc2ccccc2)cc1NC(=O)CCSc1ncnc(N)c1Br [Compound 15] | 1
9 | Nc1ncnc(NCCc2cnc(NC(=O)Nc3cccc(C(F)(F)F)c3)s2)c1Br [Compound 18] | 0.05

biological target: T3, Humanized mouse Aurora A (amino acids 107-403) (Mus musculus, UniProt P97477); assay: Aurora A kinase assay (IMAP fluorescence polarization, FAM-PKAtide, 10 μM ATP); format: biochemical; conditions: Table 1; disulfide chemistry: bait, fragments, unpurified reaction mixtures and purified ligand; relative to concentration of fragment molecule; read-out: IC50
T3 sequence (P97477 1-395 N164G/K218R/M280L): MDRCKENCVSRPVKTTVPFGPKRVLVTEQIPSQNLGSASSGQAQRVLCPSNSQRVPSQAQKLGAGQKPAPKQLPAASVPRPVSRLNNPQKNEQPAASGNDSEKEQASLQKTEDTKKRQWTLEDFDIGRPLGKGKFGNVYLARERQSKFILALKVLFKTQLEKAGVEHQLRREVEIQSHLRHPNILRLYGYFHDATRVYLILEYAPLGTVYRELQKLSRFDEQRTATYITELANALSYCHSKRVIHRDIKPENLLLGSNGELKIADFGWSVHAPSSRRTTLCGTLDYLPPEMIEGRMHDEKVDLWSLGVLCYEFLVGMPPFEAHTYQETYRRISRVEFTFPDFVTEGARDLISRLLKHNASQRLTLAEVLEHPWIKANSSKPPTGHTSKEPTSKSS
Protocol: Aurora A Kinase Assay: Humanized mouse Aurora A (amino acids 107-403) was expressed in E. coli as described herein. […] The kinase reaction was initiated by adding Aurora A at a final concentration of 0.3 nM and incubated at 21° C. for 30 min. As a positive control for enzyme activity, the reaction mixture was added to DMSO and as a negative control for enzyme activity, the reaction mixture was added to Compound 1 at a final concentration of 5 μM. Both control reactions were conducted in triplicate. To detect phosphorylated PKAtide, the kinase reaction was combined with Progressive Binding Solution (1:400 Progressive Binding Reagent, 1× Buffer A, Molecular Devices) in a 1:3 ratio. The mixture was incubated for 30 min at 25° C. and the plate was scanned on an Analyst AD with excitation at 485 nm and emission at 530 nm. The fluorescence polarization value “P” is defined by equation (1) below, where “Fpar” is the fluorescence intensity parallel to the excitation plane and “Fperp” is the fluorescence intensity perpendicular to the excitation plane. The value “mP” was generated by multiplying the P value for each reaction well by a factor of 1000. The percent relative enzymatic activity (“Y” values) was calculated by normalizing the mP value for each well to the average positive control. Relative enzymatic activity values were plotted as a function of the logarithm of compound concentration (“x”) and […] values were generated in GraphPad Prism software version 4.01 using Equation (2), where “x” is the logarithm of compound concentration and “Top”, “Bottom” and “HillSlope” are curve parameters calculated by the software. IC50 values were calculated as the concentration of compound at which enzymatic activity is 50%.
Fragment Library Pilot Screen. Fragment molecule plates were screened in 96-well plates at 5 μM in single-point format in the Aurora A Kinase assay as described above. All reaction mixtures resulting in greater than or equal to 50% inhibition of enzymatic activity were then tested in an IC50 assay. Original screening samples were used for follow-up IC50 experiments. LC/MS analysis was conducted on fragment assembly screening plates to confirm presence of desired test ligand in the reaction mixture. Confirmed hits were then resynthesized as purified thioether compounds and tested in an IC50 assay.

Row | Compound | IC50 [µM]
10 | SCCNc1ncnc2ccsc12 [Compound 4] | 24
11 | NCCSSCCNC(=O)Nc1cccc(C(F)(F)F)c1 [Compound 5] | 30
12 | O=C(NCCSSCCNc1ncnc2ccsc12)Nc1cccc(C(F)(F)F)c1 [Compound 3] | 1.6
13 | NCCSSCCN [Cystamine, reference compound] | 55

same assay, conditions: Table 2; thioether chemistry: bait, test fragment, unpurified reaction mixtures and purified ligand; relative to concentration of fragment molecule; read-out: IC50

Row | Compound | IC50
14 | NCCSSCCc1cnc(NC(=O)Nc2cccc(C(F)(F)F)c2)s1 [Compound 8] | 10 µM and 12.2 µM
15 | Clc1ncnc2ccsc12 [Compound 7] | 28 µM
16 | NCCSSCCN [Cystamine, reference compound] | > 500 µM

same assay, conditions: Table 4; purified resynthesized molecule; read-out: Resynthesized Hit/Analog IC50

Row | Compound | IC50 [µM]
17 | COc1ccc(C(=O)Nc2ccccc2)cc1NC(=O)CCSCc1cnc2[nH]ccc2c1 [Compound 16] | 0.15
18 | COc1ccc(C(=O)Nc2ccccc2)cc1NC(=O)CCSc1ncnc(N)c1Br [Compound 15] | 0.12
19 | Nc1ncnc(NCCc2cnc(NC(=O)Nc3cccc(C(F)(F)F)c3)s2)c1Br [Compound 18] | 0.005
20 | O=C(NCCSc1ncnc2[nH]ccc12)Nc1ccc(C(=O)O)c(O)c1 [Compound 17] | 0.4

same assay, conditions: Table 5; bait, fragment and disulfide-assembled molecules; relative to concentration of fragment molecule; read-out: IC50

Row | Compound | IC50 [µM]
21 | O=C(NCCCCCNc1ncnc2ccsc12)c1sc(C(F)(F)F)cc1O [Compound 23] | 11.5
22 | CCCCNC(=O)c1cccc(NC(=O)CCCCCNc2ncnc3ccsc23)c1 [Compound 21] | 4.1
23 | CCCCNC(=O)c1cccc(NC(=O)CSSCCN)c1 [Compound 20] | > 50
24 | NCCSSCCNC(=O)c1sc(C(F)(F)F)cc1O [Compound 22] | > 50

same assay, conditions: thioether chemistry; product mixture and purified compound; read-out: IC50

Row | Compound | IC50 [µM]
25 | O=C(Nc1cccc(C(F)(F)F)c1)Nc1ncc(CCSc2ncnc3ccsc23)s1 [Compound 6, reference compound] | 0.005
